From ChEMBL document CHEMBL1201862, “PubChem BioAssay data set” (2004)
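Growth conditions: 96-well plates. Treatment: test compound, 48 hours, 5 concentrations. Analysis: linear interpolation between bracketing concentrations; unreached endpoints set to highest concentration. Here, GI50 denotes the concentration required for 50% inhibition of growth.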 The source made the active and inactive calls. Cut-off read from the data, not from the text of the source: active = GI50 up to about 1.1 µM and inactive = higher.

Tests used:
Experiment in all cases: growth of human tumour cells (NCI), 48 h
OVCAR-5 = tested on: OVCAR-5
MOLT-4 = tested on: MOLT-4
MDA-N = tested on: MDA-N
K562 = tested on: K562
PC-3 = tested on: PC-3
Hs-578T = tested on: Hs-578T
CCRF-CEM = tested on: CCRF-CEM
NCI/ADR-RES = tested on: NCI/ADR-RES
HT-29 = tested on: HT-29
OVCAR-3 = tested on: OVCAR-3
MDA-MB-231 = tested on: MDA-MB-231
MDA-MB-435 = tested on: MDA-MB-435
HCC 2998 = tested on: HCC 2998
NCI-H23 = tested on: NCI-H23
NCI-H226 = tested on: NCI-H226
A549 = tested on: A549
SK-MEL-2 = tested on: SK-MEL-2
UACC-257 = tested on: UACC-257
RXF 393 = tested on: RXF 393
EKVX = tested on: EKVX

## Cc1cn(C2OC(CO[Si](C)(C)C(C)(C)C)C(N(C)O[Si](C)(C)C(C)(C)C)C2[Se]c2ccccc2)c(=O)[nH]c1=O (stereo not drawn)
OVCAR-5
  GI50: 2.82 µM (inactive)
MOLT-4
  GI50: 3.72 µM (inactive)
MDA-N
  GI50: 8.93 µM (inactive)
K562
  GI50: 7.59 µM (inactive)
PC-3
  GI50: 3.85 µM (inactive)
Hs-578T
  GI50: 2.67 µM (inactive)
CCRF-CEM
  GI50: 11.8 µM (inactive)
NCI/ADR-RES
  GI50: 13.2 µM (inactive)
HT-29
  GI50: 3.34 µM (inactive)
OVCAR-3
  GI50: 4.39 µM (inactive)
MDA-MB-231
  GI50: 6.27 µM (inactive)
MDA-MB-435
  GI50: 3.79 µM (inactive)
HCC 2998
  GI50: 0.0325 µM (active)
NCI-H23
  GI50: 4.6 µM (inactive)
NCI-H226
  GI50: 3.95 µM (inactive)
A549
  GI50: 4.48 µM (inactive)
SK-MEL-2
  GI50: 7.6 µM (inactive)

## CC12ON=C(c3ccccc3)N1C=CN1C(c3ccccc3)=NOC12 (stereo not drawn)
OVCAR-5
  GI50: > 100 µM (inactive)
MDA-N
  GI50: > 100 µM (inactive)
UACC-257
  GI50: > 100 µM (inactive)
RXF 393
  GI50: 64.9 µM (inactive)
PC-3
  GI50: > 100 µM (inactive)
Hs-578T
  GI50: > 100 µM (inactive)
EKVX
  GI50: > 100 µM (inactive)
NCI/ADR-RES
  GI50: > 100 µM (inactive)
OVCAR-3
  GI50: > 100 µM (inactive)
MDA-MB-231
  GI50: > 100 µM (inactive)
HCC 2998
  GI50: > 100 µM (inactive)
NCI-H23
  GI50: > 100 µM (inactive)
NCI-H226
  GI50: > 100 µM (inactive)
A549
  GI50: > 100 µM (inactive)

## CCOP(=O)(C=C=C1CCC2[C@@H]3CCc4cc(OC)ccc4C3CC[C@]12C)OCC (stereo partly drawn)
OVCAR-5
  GI50: 17 µM (inactive)
MDA-N
  GI50: 12.3 µM (inactive)
K562
  GI50: 0.348 µM (active)
UACC-257
  GI50: 6.21 µM (inactive)
RXF 393
  GI50: 1.98 µM (inactive)
PC-3
  GI50: 3.92 µM (inactive)
Hs-578T
  GI50: 20.5 µM (inactive)
EKVX
  GI50: 10 µM (inactive)
NCI/ADR-RES
  GI50: 6.47 µM (inactive)
HT-29
  GI50: 3.93 µM (inactive)
OVCAR-3
  GI50: 10.2 µM (inactive)
MDA-MB-435
  GI50: 12.4 µM (inactive)
HCC 2998
  GI50: 12.1 µM (inactive)
NCI-H23
  GI50: 5.73 µM (inactive)
NCI-H226
  GI50: 5.43 µM (inactive)
A549
  GI50: 4.07 µM (inactive)
SK-MEL-2
  GI50: 12.9 µM (inactive)

## CCOP(=O)(CN1CCNCCNCC1)OCC
OVCAR-5
  GI50: > 100 µM (inactive)
MOLT-4
  GI50: > 100 µM (inactive)
MDA-N
  GI50: > 100 µM (inactive)
K562
  GI50: > 100 µM (inactive)
UACC-257
  GI50: > 100 µM (inactive)
PC-3
  GI50: > 100 µM (inactive)
Hs-578T
  GI50: > 100 µM (inactive)
CCRF-CEM
  GI50: > 100 µM (inactive)
EKVX
  GI50: > 100 µM (inactive)
NCI/ADR-RES
  GI50: > 100 µM (inactive)
HT-29
  GI50: > 100 µM (inactive)
OVCAR-3
  GI50: > 100 µM (inactive)
MDA-MB-231
  GI50: > 100 µM (inactive)
MDA-MB-435
  GI50: > 100 µM (inactive)
HCC 2998
  GI50: > 100 µM (inactive)
NCI-H226
  GI50: > 100 µM (inactive)
A549
  GI50: > 100 µM (inactive)
SK-MEL-2
  GI50: > 100 µM (inactive)

## NS(=O)(=O)c1cc(S(N)(=O)=O)c(NC(=O)Nc2ccc(Cl)c(Cl)c2)c(Cl)c1Cl
OVCAR-5
  GI50: > 100 µM (inactive)
MOLT-4
  GI50: > 100 µM (inactive)
MDA-N
  GI50: > 100 µM (inactive)
K562
  GI50: > 100 µM (inactive)
UACC-257
  GI50: > 100 µM (inactive)
PC-3
  GI50: > 100 µM (inactive)
Hs-578T
  GI50: > 100 µM (inactive)
EKVX
  GI50: > 100 µM (inactive)
NCI/ADR-RES
  GI50: > 100 µM (inactive)
HT-29
  GI50: > 100 µM (inactive)
OVCAR-3
  GI50: > 100 µM (inactive)
MDA-MB-231
  GI50: > 100 µM (inactive)
MDA-MB-435
  GI50: > 100 µM (inactive)
HCC 2998
  GI50: > 100 µM (inactive)
NCI-H23
  GI50: > 100 µM (inactive)
NCI-H226
  GI50: 96.2 µM (inactive)
A549
  GI50: > 100 µM (inactive)
SK-MEL-2
  GI50: > 100 µM (inactive)

## COc1ccc2c(c1)c(CC(=O)O)c(C)n2C(=O)c1ccc(Cl)cc1
OVCAR-5
  GI50: > 100 µM (inactive)
MOLT-4
  GI50: > 100 µM (inactive)
MDA-N
  GI50: > 100 µM (inactive)
K562
  GI50: 13.7 µM (inactive)
UACC-257
  GI50: > 100 µM (inactive)
PC-3
  GI50: 39 µM (inactive)
Hs-578T
  GI50: > 100 µM (inactive)
CCRF-CEM
  GI50: 33.8 µM (inactive)
EKVX
  GI50: > 100 µM (inactive)
NCI/ADR-RES
  GI50: > 100 µM (inactive)
HT-29
  GI50: > 100 µM (inactive)
OVCAR-3
  GI50: 56.6 µM (inactive)
MDA-MB-231
  GI50: > 100 µM (inactive)
MDA-MB-435
  GI50: > 100 µM (inactive)
HCC 2998
  GI50: 35.6 µM (inactive)
NCI-H23
  GI50: 57 µM (inactive)
NCI-H226
  GI50: 98.4 µM (inactive)
A549
  GI50: > 100 µM (inactive)
SK-MEL-2
  GI50: 60.3 µM (inactive)
